# Results published in US5861387A, “Controlled release systems and low dose androgens” (Endorecherche Inc., priority 1995, dated 1999).
# Experiments:
# antibody 144A = test: MPA radioimmunoassay, specificity of antibody 144A; assay type: binding, rabbit
# Description: Antibody 144A was raised in rabbits against 17-hydroxyprogesterone-3-0-carboxymethyloxime-BSA. The labeled steroid used in the radioimmunoassay (RIA) was methyl-17α-hydroxyprogesterone acetate, 6α-[1,2-^3 H(N)]- obtained from NEN (CAT NO: NET 480) while the reference preparation was medroxyprogesterone acetate (MPA) obtained from Steraloids. The assay buffer used was 0.1% gelatin in 0.1M sodium phosphate, 0.15M sodium chloride, 0.1% sodium azide, pH 7.2. The extraction solvent mixture was ethyl ether-acetone (9:1, v:v) [EEA] while the LH-20 chromatography solvent mixture was iso-octane: toluene: methanol (90:5:5;v:v:v) [IOTH].
# One ml of plasma was extracted twice with 5 ml of EEA. The extracts were evaporated to dryness with nitrogen and the remaining residue was dissolved in one ml of IOTH. The extracts were then subjected to LH-20 chromatography on […] columns (Coming CAT NO: 05 722A) filled with 2 g of LH-20 (Pharmacia). The gel was washed with 30 ml of IOTH before addition of one ml of sample and elution with IOTH. The first 6 ml were discarded. The following 10, 16.5 and 27.5 ml of eluent were fraction I (progesterone), II (MPA) and III (17-LH-progesterone), respectively. Fraction II was evaporated to dryness and reconstituted in 1.5 ml of assay buffer.
# To each 12 x 75 mm borosilicate test tube was added: 0.2 ml containing 25,000 DPM of tritiated steroid, 0.5 ml of reference preparation ranging from 5 to 5000 pg/tube or 0.5 ml of extracted sample fraction II, 0.2 ml of antiserum 144A diluted 1/5000 or 0.2 ml of assay buffer to account for non specific binding. The tubes were then incubated overnight at 4° C. Then, 0.2 ml 2% charcoal Norit-A, 0.2% Dextran T-70 diluted in water was added. The tubes were then shaken gently and, after 10 min, they were centrifuged at 2000 x g for 10 min. The supernatant was mixed with 8 ml of Formula-989 (NEN: NEF-989) and the radioactivity was counted in a β-counter.
# masculinizing activity = conditions: low blood concentrations; cited from earlier work
# [1] = tested on: human breast cancer ZR-75-1 cells, androgen receptor; test: Androgenic (androgen receptor) activity in ZR-75-1 cells: cell growth and GCDFP-15/GCDFP-24 secretion; assay type: cell-based; conditions: for androgenic activity: ZR-75-1 cells, low concentrations
# Description: Maintenance of stock cultures The ZR-75-1 human breast cancer cell line can be obtained from the American Type Culture Collection (Rockville, Md.). The cells are routinely cultured in phenol red-free RPMI 1640 medium supplemented with 10 nM E2, 15 mM Hepes, 2 mM L-glutamine, 1 mM sodium pyruvate, 100 IU penicillin per ml, 100 μg streptomycin sulfate per ml, and 10% (v/v) fetal bovine serum (FBS), in a water-saturated atmosphere of 95% air: 5% CO2 at 37° C.
# Stock cultures in their logarithmic growth phase are harvested with 0.05% trypsin/0.02% EDTA (w/v) in Hanks' balanced salts solution and resuspended in E2- and phenol red-free RPMI 1640 medium containing 5% (v/v) dextran-coated charcoal (DCC)-treated FBS and 500 ng of bovine insulin per ml, but otherwise supplemented as described above for maintenance of stock cultures. Cells were plated in 24-well Linbro culture plates (Flow Laboratories) at a final density of 0.5-4.0×10^4 cells/well.
# Fourty-eight hours after plating, fresh SD medium containing the appropriate concentrations of steroids are added. […] The incubation media are replaced every other day and cells are harvested by trypsinization after 12 days of treatment, unless otherwise indicated. Cell number can be determined with a Coulter Counter.
# Calculations and statistical analyses Apparent IC50 values are calculated using an iterative least squares regression (Rodbard, Endocrinology 94:1427-1437,1974), while apparent inhibition constants (Ki values) are calculated according to Cheng and Prusoff (Biochem. Pharmacol. 22: 3099-3108,1973).
# In addition to inhibition of cell growth, the secretion of two glycoproteins, namely gross cystic disease fluid protein-15 (GCDFP-15) and GCDFP-24 is markedly stimulated by androgens (Simard et al., Mol. Endocrinol. 3: 694-702, 1989; Simard et al., Endocrinology 126: 3223-3231, 1990).
# To assist in determining the activity of the potential compounds on the various steroid receptors, androgen, glucocorticoid, progesterone and estrogen-receptor-mediated activities of synthetic progestins and anabolic steroids can be measured in ZR-75-1 human breast cancer cells using cell growth as well as GCDFP-15 and GCDFP-24 release as parameters of response (Poulin and Labrie, Cancer Res. 46: 4933-4937, 1986; Poulin et al., Breast Cancer Res. Treatm. 12: 213-225, 1988; Poulin et al., Breast Cancer Res. Treatm. 13: 161-172, 1989; Poulin et al., Breast Cancer Res. Treatm. 13: 265-276, 1989; Simard et al., Mol. Endocrinol. 3: 694-702, 1989; Simard et al., Endocrinology 126: 3223-3231, 1990).
# In order to analyze the interactions of synthetic progestins or anabolic steroids with the androgen receptor (AR) and glucocorticoid receptor (GR) in their inhibitory action on cell growth, one takes advantage of the additivity of the anti-proliferative effects of androgens and glucocorticoids in this cell line (Poulin et al., Breast Cancer Res. Treatm. 12: 213-225, 1988; Hatton and Labrie, F., unpublished data). […] On the other hand, the effect of a putative androgen can similarly be measured following saturation of GR by dexamethasone (DEX). […] Thus, in the presence of excess androgen (1 μM DMT) in the presence of E2 and insulin, glucocorticoid effects can be assessed with precision and with no interference by the other receptors. The same applies to study of the role of AR when the cells are incubated in the presence of excess glucocorticoid (3 μM DEX), in the presence of E2 and insulin.
# bone = conditions: cited from earlier work
# breast cancer [2] = conditions: cited from earlier work
# breast cancer [3] = conditions: in vivo; cited from earlier work
# [4] = tested on: DMBA-induced mammary carcinoma; conditions: cited from earlier work
# breast cancer [5] = conditions: cited from earlier work; remark: listed apart in the source
# [6] = E2-treated ovariectomized rats, with or without DHT
compound,measurement,setting,value
C[C@]12CC[C@@H](O)C[C@@H]1CC[C@@H]1[C@@H]2CC[C@]2(C)[C@@H](O)CC[C@@H]12 [3α-diol],cross-reactivity with antibody 144A,antibody 144A,less than 0.1%
"C[C@]12CCC(=O)C[C@@H]1CC[C@@H]1[C@@H]2CC[C@]2(C)[C@@H](O)CC[C@@H]12 [DHT, 5α-dihydrotestosterone]",masculinizing activity,masculinizing activity,considerable masculinizing activity even at low blood concentrations
same,concentration exerting maximal inhibitory effect on the AR,"[1]; detailed kinetic studies, ZR-75-1",1 µM
C#C[C@]1(O)CC[C@H]2[C@@H]3CCC4=Cc5oncc5C[C@]4(C)[C@H]3CC[C@@]21C [danazol],androgenic activity,[1],possess androgenic activity at low concentrations
C[C@]12Cc3c[nH]nc3C[C@@H]1CC[C@@H]1[C@@H]2CC[C@@]2(C)[C@H]1CC[C@]2(C)O [stanozolol],bone mass,bone; in vivo,increase in total bone mass
same,side effects,bone; randomized study in postmenopausal women,side effects were recorded in the majority of patients
same,androgenic activity,[1],possess androgenic activity at low concentrations
C[C@]12CCC(=O)C=C1CC[C@@H]1[C@@H]2[C@@H](O)C[C@@]2(C)[C@H]1CC[C@]2(O)C(=O)CO [cortisol],cross-reactivity with antibody 144A,antibody 144A,less than 0.1%
CC(=O)[C@H]1CC[C@H]2[C@@H]3CCC4=CC(=O)CC[C@]4(C)[C@H]3CC[C@]12C [progesterone],cross-reactivity with antibody 144A,antibody 144A,less than 0.1%
"C[C@H]1CC2=CC(=O)CC[C@]2(C)[C@H]2CC[C@@]3(C)[C@@H](CC[C@]3(C)O)[C@H]12 [calusterone, 7β,17α-dimethyltestosterone]",androgenic activity,[1],possess androgenic activity at low concentrations
CC(=O)[C@@]1(O)CC[C@H]2[C@@H]3CC=C4C[C@@H](O)CC[C@]4(C)[C@H]3CC[C@@]21C [17-OH-pregnenolone],cross-reactivity with antibody 144A,antibody 144A,less than 0.1%
CC/C(=C(\c1ccccc1)c1ccc(OCCN(C)C)cc1)c1ccccc1 [Tamoxifen],median time from onset of therapy to treatment failure,breast cancer [2]; in vivo,64 days
same,non-responders,breast cancer [2]; in vivo,50%
same,partial response (PR),breast cancer [2]; in vivo,15%
same,survival,breast cancer [2]; tendency for improved survival,330 days
C[C@]12CC[C@@H]3c4ccc(O)cc4CC[C@H]3[C@@H]1CCC2=O [estrone],cross-reactivity with antibody 144A,antibody 144A,less than 0.1%
CCC(=O)O[C@H]1CC[C@H]2[C@@H]3CCC4=CC(=O)CC[C@]4(C)[C@H]3CC[C@]12C [testosterone propionate],effect in pre- and post-menopausal women,breast cancer [3],beneficial effects in both pre- and post-menopausal women
same,objective remissions in breast cancer,breast cancer [3],effective in producing objective remissions
same,"remission rate and duration, quality of life and survival",breast cancer [3],"improved remission rate and duration, quality of life and survival"
CC(C)C(=O)Nc1ccc([N+](=O)[O-])c(C(F)(F)F)c1 [Flutamide],effect on DHT action,[4]; simultaneous treatment with DHT,completely prevented DHT action
CCCCCCC(=O)O[C@H]1CC[C@H]2[C@@H]3CC[C@H]4CC(=O)C=C(C)[C@]4(C)[C@H]3CC[C@]12C [methonolone enanthate],response rate,breast cancer [5]; 13 of 27 patients,48%
same,"median duration of survival, non-responders",breast cancer [5]; non-responder group,7.5 months
same,"median duration of survival, responders",breast cancer [5]; responders,27 months
C[C@@H]1C[C@@]2(C)[C@@H](CC[C@@H]3[C@@H]2CC[C@]2(C)[C@@H](O)CC[C@@H]32)CC1=O [dromostanolone],androgenic activity,[1],possess androgenic activity at low concentrations
Vitamin D,"bone resorption, osteoporotic women",bone; in vivo,only reduced bone resorption
C#C[C@]1(O)CC[C@H]2[C@@H]3CCC4=CC(=O)CC[C@]4(C)[C@H]3CC[C@@]21C [ethisterone],androgenic activity,[1],possess androgenic activity at low concentrations
C[C@]12CCC(=O)C=C1CC[C@@H]1[C@@H]2CC[C@]2(C)C(=O)CC[C@@H]12 [androstenedione],cross-reactivity with antibody 144A,antibody 144A,less than 0.1%
C[C@]12C=CC(=O)C=C1CC[C@@H]1[C@@H]2CC[C@@]2(C)[C@H]1CC[C@]2(C)O [methandrostanolone],effect on postmenopausal osteoporosis (total body calcium),"bone; 24-26 months, double-blind",positive and relatively long-term
same,androgenic activity,[1],possess androgenic activity at low concentrations
C[C@H](O)[C@H]1CC[C@H]2[C@@H]3CCC4=CC(=O)CC[C@]4(C)[C@H]3CC[C@]12C [20α-OH-Prog],cross-reactivity with antibody 144A,antibody 144A,less than 0.1%
CC/C(=C(/CC)c1ccc(O)cc1)c1ccc(O)cc1 [DES],objective remissions in breast cancer,breast cancer [3],effective in producing objective remissions
C[C@]12CC[C@H]3[C@@H](CCC4=CC(=O)CC[C@@H]43)[C@@H]1CC[C@@H]2O [Nor-testosterone],androgenic activity,[1],possess androgenic activity at low concentrations
"C[C@]12CC[C@@H]3c4ccc(O)cc4CC[C@H]3[C@@H]1CC[C@@H]2O [E2, 17β-estradiol]",number of new tumors per rat,"[4]; 28-day observation period, E2-treated animals, with or without DHT",1.5±0.3 per rat
same,complete responses (disappearance of palpable tumors),[4]; [6],11.5%
same,progressing tumors,[4]; [6],69.2%
same,cross-reactivity with antibody 144A,antibody 144A,less than 0.1%
CC(=O)O[C@]1(C(C)=O)CC[C@H]2[C@@H]3C=C(Cl)C4=CC(=O)CC[C@]4(C)[C@H]3CC[C@@]21C [chlormadinone acetate],androgenic activity,[1],possess androgenic activity at low concentrations
C[C@]12C/C(=C/O)C(=O)C[C@@H]1CC[C@@H]1[C@@H]2CC[C@@]2(C)[C@H]1CC[C@]2(C)O [oxymetholone],androgenic activity,[1],possess androgenic activity at low concentrations
CC(=O)[C@H]1CC[C@H]2[C@@H]3CC=C4C[C@@H](O)CC[C@]4(C)[C@H]3CC[C@]12C [pregnenolone],cross-reactivity with antibody 144A,antibody 144A,less than 0.1%
C[C@]12COC(=O)C[C@@H]1CC[C@@H]1[C@@H]2CC[C@@]2(C)[C@H]1CC[C@]2(C)O [oxandrolone],androgenic activity,[1],possess androgenic activity at low concentrations
